Measured values: the supplement of paper PMC10307832

Columns and labels:
Experiment in all cases: relative viability (nuclei count vs DMSO), 5 days (fraction); higher = more cells survive
GSK-J4 + Alpelisib = compound: CCOC(=O)CCNc1cc(N2CCc3ccccc3CC2)nc(-c2ccccn2)n1 [GSK-J4] + Cc1nc(NC(=O)N2CCC[C@H]2C(N)=O)sc1-c1ccnc(C(C)(C)C(F)(F)F)c1 [Alpelisib] (partner 2 µM)
Outline: (§1)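 The day after seeding in 1536-well plates, lung cancer cell lines were treated by pin tool with a single drug, or with a fixed anchor-drug dose together with five library-drug doses (not always all listed) in √10 steps. After 5 days, a combined fix-and-stain solution (final 0.05% Triton X-100, 1% formaldehyde, 1 ug/ml Hoechst) was added. Nuclei counted on 4× images gave relative viability as treated counts over vehicle counts, reported as the median of duplicate plates.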

AZ3146 + Palbociclib = compound: CN1CCC(CC1)OC2=CC(=C(C=C2)NC3=NC=C4C(=N3)N(C(=O)N4C)C5CCCC5)OC [AZ3146] + CC(=O)c1c(C)c2cnc(Nc3ccc(N4CCNCC4)cn3)nc2n(C2CCCC2)c1=O [Palbociclib] (partner 0.5 µM)
Outline: as §1

AZ3146 + AZD7762 = compound: CN1CCC(CC1)OC2=CC(=C(C=C2)NC3=NC=C4C(=N3)N(C(=O)N4C)C5CCCC5)OC [AZ3146] + NC(=O)Nc1cc(-c2cccc(F)c2)sc1C(=O)N[C@H]1CCCNC1 [AZD7762] (partner 0.2 µM)
Outline: as §1

AZ3146 + Bortezomib = compound: CN1CCC(CC1)OC2=CC(=C(C=C2)NC3=NC=C4C(=N3)N(C(=O)N4C)C5CCCC5)OC [AZ3146] + CC(C)C[C@H](NC(=O)[C@H](Cc1ccccc1)NC(=O)c1cnccn1)B(O)O [Bortezomib] (partner 0.002 µM)
Outline: as §1

Row | Cell Line | relative viability (GSK-J4 + Alpelisib; first compound 0.5 µM) | relative viability (GSK-J4 + Alpelisib; first compound 1.581 µM) | relative viability (GSK-J4 + Alpelisib; first compound 5 µM) | relative viability (GSK-J4 + Alpelisib; first compound 15.81 µM) | relative viability (GSK-J4 + Alpelisib; first compound 50 µM) | relative viability (AZ3146 + Palbociclib; first compound 0.08 µM) | relative viability (AZ3146 + Palbociclib; first compound 0.253 µM) | relative viability (AZ3146 + Palbociclib; first compound 0.8 µM) | relative viability (AZ3146 + Palbociclib; first compound 2.53 µM) | relative viability (AZ3146 + Palbociclib; first compound 8 µM) | relative viability (AZ3146 + AZD7762; first compound 0.08 µM) | relative viability (AZ3146 + AZD7762; first compound 0.253 µM) | relative viability (AZ3146 + AZD7762; first compound 0.8 µM) | relative viability (AZ3146 + AZD7762; first compound 2.53 µM) | relative viability (AZ3146 + AZD7762; first compound 8 µM) | relative viability (AZ3146 + Bortezomib; first compound 0.08 µM) | relative viability (AZ3146 + Bortezomib; first compound 0.253 µM) | relative viability (AZ3146 + Bortezomib; first compound 2.53 µM) | relative viability (AZ3146 + Bortezomib; first compound 8 µM) | relative viability (AZ3146 + Bortezomib; first compound 0.8 µM)
1 | NCI-H2170 | 0.787 | 0.803 | 0.878 | 0.781 | 0.713 | 0.341 | 0.361 | 0.394 | 0.398 | 0.377 | 0.85 | 0.889 | 0.871 | 0.814 | 0.713 |  |  |  |  | 
2 | NCI-H1793 | 0.79 | 0.737 | 0.715 | 0.602 | 0.275 | 0.269 | 0.292 | 0.311 | 0.374 | 0.321 | 0.259 | 0.397 | 0.259 | 0.229 | 0.178 |  |  |  |  | 
3 | A549 | 0.765 | 0.578 | 0.669 | 0.823 | 0.691 |  |  |  |  |  |  |  |  |  |  |  |  |  |  | 
4 | NCI-H596 | 0.479 | 0.503 | 0.525 | 0.457 | 0.477 |  |  |  |  |  | 1.11 | 1.21 | 1.15 | 0.986 | 1.13 | 0.961 | 1.05 | 1.07 | 0.935 | 
5 | SK-MES-1 | 0.783 | 0.968 | 0.842 | 0.805 | 0.819 | 0.331 | 0.344 | 0.346 | 0.291 | 0.305 |  |  |  |  |  |  |  |  |  | 
6 | NCI-H1395 | 1.03 | 0.88 | 0.845 | 1.14 | 0.821 | 0.619 | 0.603 |  | 0.619 | 0.647 | 0.352 | 0.389 |  | 0.379 | 0.4 |  |  |  |  | 
7 | SW 900 |  |  |  |  |  | 0.447 |  | 0.502 | 0.489 | 0.589 | 0.527 |  | 0.59 | 0.767 | 0.519 |  |  |  |  | 
8 | IA-LM | 0.77 | 0.693 | 0.887 | 0.693 | 0.149 |  |  |  |  |  |  |  |  |  |  | 0.643 | 0.775 | 0.695 | 0.264 | 0.759
9 | NCI-H2009 | 1.1 | 1.16 | 1.08 | 1.1 | 0.966 | 0.256 | 0.227 | 0.243 | 0.171 | 0.204 |  |  |  |  |  | 0.824 | 1.08 | 1.04 | 0.636 | 1.05
10 | NCI-H1703 | 0.286 | 0.461 | 0.289 | 0.372 | 0.363 |  |  |  |  |  | 0.104 | 0.164 | 0.106 |  | 0.183 | 0.213 | 0.485 | 0.275 | 0.275 | 0.292
11 | NCI-H520 | 0.899 | 0.781 | 1.2 | 0.868 | 0.834 | 0.237 | 0.216 | 0.22 | 0.237 | 0.195 |  |  |  |  |  | 0.355 | 0.677 | 0.673 | 0.583 | 0.614
12 | NCI-H1563 | 0.885 | 0.85 | 0.872 | 0.891 | 1.02 |  |  |  |  |  |  |  |  |  |  | 0.703 | 0.82 | 1.01 | 0.77 | 0.826
13 | NCI-H1648 |  |  |  |  |  |  |  | 0.27 | 0.298 | 0.232 |  |  | 0.863 | 0.757 | 0.624 |  |  |  |  | 
